Where “and” joins values, the source holds several entries; their conditions need not be identical. Identical values can stand only once. Like-named read-outs stand apart in the source and are kept apart here.
Tests used:
male germ cells [1] = format: in vivo, mouse; conditions: B16 tumor-bearing mice; CP 200 mg/Kg single IP, 2 weeks
Protocol: A total of 25 young adult mice (10-12 weeks) were randomly divided into 5 groups (n=5 per group). Five mice were used as control. Twenty mice were inoculated intravenously with B16 murine melanoma cells (2×10^5 cells/mouse). Among these 20 tumor-inoculated mice, 5 mice received no further treatment. After one week, the remaining 15 mice were divided into 3 groups and injected with: 1) HNG daily IP (5 mg/Kg body weight) for 2 weeks; 2) CP (200 mg/Kg body weight IP single injection); 3) combined CP with HNG treatment (same doses as above). All mice were sacrificed 3 weeks after tumor inoculation, and 2 weeks after HNG and/or CP treatment. The animals were sacrificed with 5% pentobarbital (200 mg/kg body weight) IP injection after which blood was collected from the right atrium of the heart. One of the testes from each mouse was immersed fixed in Bouin's solution, and the mice were perfused with saline and subsequently perfuse-fixed with 5% glutaraldehyde in 0.05 M cacodylate buffer (pH 7.4). The lungs were dissected out and post fixed in 5% glutaraldehyde solution for 24 hours and stored in cacodylate buffer at 4° C. for the subsequent tumor count (Lue, et al., 2010; Lue, et al., 2009).

male germ cells [2] = format: in vivo; conditions: middle stages (VII-VIII); same doses; 24 hours; monohydrate
Protocol: For the HN analog experiments, male mice were divided into seven groups (n=4-5 per group) and received one of the following treatments and sacrificed after 24 hours: 1) vehicle (control); 2) a single intra-peritoneal (IP) injection of HN peptide [HN, 40 mg/Kg body weight (BW)]; 3) a single IP injection of CP (CP, 200 mg/Kg BW); 4) IP injection of CP and HN (CP+HN); 5) a single IP injection of each HN analog (HNG 5 mg/Kg BW, HNG-F6A 5 mg/Kg BW, HN-S7A 40 mg/Kg BW, HN-C8P 40 mg/Kg BW, or HN-L12A 40 mg/Kg BW); 6) IP injection of CP and each HN analog (CP+HNG, HNG-F6A, HN-S7A, HN-C8P, or HN-L12A); and 7) IP injection of CP+HN+HN analog (HN-S7A, HN-C8P, or HN-L12A; to assess whether the analogs has enhancing or inhibitory effect on HN).
To facilitate testicular fixation by using a whole-body perfusion technique, all animals were injected with heparin (130 IU/100 g BW, IP) 15 min before a lethal injection of sodium pentobarbital (200 mg/kg BW, IP) (Lue Y H, et al., 1999). One testis was removed and weighed after perfusion with saline. Portions of testicular parenchyma were snap frozen in liquid nitrogen, and stored at −80 C for Western blotting. The other testis was fixed by vascular perfusion with Bouin's solution, and processed with routine paraffin embedding for in situ detection of apoptosis.
Detection of apoptotic cells was performed in Bouin's'-fixed, paraffin-embedded testicular sections by the terminal deoxynucleotidyl transferase (TdT)-mediated deoxy-UTP nick end labeling (TUNEL) technique (Sinha Hikim A P, et al., 1997) using an ApopTag-peroxidase kit (Chemicon International, Inc., Temecula, Calif.). Enumeration of the Sertoli cell nuclei with distinct nucleoli and apoptotic germ cell population was quantified at stages I-IV (early stages), stages VII-VIII (middle stages) and stages XI-XII (late stages) of the seminiferous epithelial cycle using an Olympus BH-2 microscope (New Hyde Park, N.Y.). Stages were identified according to the criteria proposed by Russell et al for paraffin sections (Russell L, 1977). The rate of germ cell apoptosis (apoptotic index, AI) was expressed as the number of apoptotic germ cells per Sertoli cells (Sinha Hikim A P, et al., 1997).

4T1 mammary cancer = assay: 4T1 mouse mammary cancer model, tumor size and weight; conditions: in vivo
Protocol: A mouse mammary cancer model was used which utilizes 4T1 cells transfected with the luciferase gene. Growth and size of 4T1 mammary tumors were detected by bioluminescence imaging (IVIS Luminia II, Perkin Elmer, Waltham, Mass.). Mice (n=5 to 7 per group) were inoculated with 1×10^6 4T1 cells into the right third mammary gland, and 7 days later they were left untreated or treated with HNG (5 mg/kg/day IP), CP (100 mg/Kg single IP) or HNG+CP for 14 days. Bioluminescence imaging was conducted at days 7 and 12. Animals were sacrificed and tumors were removed on day 14 after the start of treatment. Mammary tumors were smaller in CP and CP+HNG groups compared to the untreated and HNG-treated animals (Data images not shown).

sperm output = assay: Cauda epididymal sperm count after multiple doses of CP; format: in vivo, mouse; conditions: 28 days; HNG 10 mg/kg BW daily SC; CP 150 mg/kg BW IP, 6 doses at 5-day intervals
Protocol: The objective of this study was to investigate whether HNG has protective effect on sperm output after multiple doses of CP in mice. Thirty adult male mice (C57BL/6J) were randomized into 4 groups: 1) 5 as control; 2) 5 received daily subcutaneously injection of HNG (10 mg/kg BW); 3) 10 were given 6 doses of CP (150 mg/kg BW) intraperitoneally at 5-day intervals; 4) 10 received both HNG and CP. All mice were killed at 28 days. Plasma HNG and IGF-1 levels were measured by ELISAs. The cauda epididymal sperm count was performed using a hemocytometer.

male germ cells [3] = system: male germ cells
testosterone = conditions: with or without EDS pre-treatment

## O=P1(N(CCCl)CCCl)NCCCO1 (centres unmarked) [CP, cyclophosphamide monohydrate]
Male germ cells [1]
  germ cell apoptosis compared to control and HNG treated mice: further significantly increased
  testis weight in comparison with control, non-treated tumor bearing and HNG treated mice: significantly decreased
Male germ cells [2]
  apoptotic index (AI, apoptotic germ cells per Sertoli cell): 0.25±0.03 and 0.33±0.03
4T1 mammary cancer
  mammary tumor size and weight: smaller
Sperm output
  epididymal sperm counts: 0.5±0.1 ×10^6/mg
Male germ cells [3]; early (I-VI) and late (IX-XIV) stages, EDS pre-treated
  germ cell apoptosis compared to control: did not significantly increased
Male germ cells [3]; early (I-VI) and late (IX-XIV) stages, no EDS, CP 70 mg/kg BW IP, 12 hours
  germ cell apoptosis compared to control: significantly increased
Male germ cells [3]; early and late stages
  CP induced germ cell apoptosis in EDS pre-treated rats vs without EDS: significantly lower
Male germ cells [3]; middle (VII-VIII) stages, no EDS, CP 70 mg/kg BW
  germ cell apoptosis compared to control: did not increase
testosterone
  intratesticular testosterone levels: no significant effects
  serum testosterone levels: no significant effects

From US9937227B2, “Humanin, analogs and cancer treatment methods and uses thereof” (LOS ANGELES BIOMEDICAL RESEARCH INSTITUTE AT HARBOR-UCLA …, priority 2014, dated 2018)
